Results taken from US20240216412A1, “OXIDIZED NICOTINAMIDE ADENINE DINUCLEOTIDE (NAD+) PRECURSOR TREATMENT FOR HEART FAILURE ALLEVIATION INDEPENDENT OF MITOCHONDRIAL PROTEIN DEACETYLATION” (University of Washington, priority 2022, published 2024).

How the values were obtained:
Assay type in all cases: in vivo, mouse
Mrpp2 = Mrpp2 dehydrogenase activity in heart homogenates; details: NR treated failing (TAC) hearts, matching sham operated controls
Description: Enzyme Activities. Citrate synthase (CS), Complex I (CI) and Cytochrome C Oxidase (CIV), and Mrpp2 dehydrogenase activities were determined in heart tissue homogenates at 30° C. using a protocol adapted from previously published methods (Spinazzi et al., 2012). Briefly, for CS activity frozen cardiac tissue (25 mg) was homogenized at 4° C. in CelLytic™ MT Cell Lysis Reagent (C3228) and then incubated on ice for 30 minutes. The samples were then centrifuged at 10,000×g for 10 minutes at 4° C. and protein concentration determined. CS activity was analyzed in 100 mM Tris buffer containing 0.1% Triton X-100, pH 8.0 as previously described (Spinazzi et al., 2012). […] CIV activity was analyzed in 100 mM potassium phosphate buffer as previously described (Spinazzi et al., 2012). […] Cl activity was analyzed in 100 mM potassium phosphate buffer as previously described (Spinazzi et al., 2012). In parallel, a separate reactions containing the same quantity of reagents and sample but with the addition of 10 μl of 1 mM rotenone solution. The reactions were started by adding 6 μl of ubiquinone (10 mM), mix and follow the decrease of absorbance at 340 nm for 2 min. The dehydrogenase activity of Mrpp2 was measured as described (Falk et al., 2016) in the reverse direction for reduction of acetoacetyl-CoA (30 mM) to L-3-hydroxyacyl-CoA. The reaction was monitored as the decrease of absorbance at 340 nm.

[1] = test system: Complex I, Cytochrome C Oxidase, Citrate synthase; experiment: Electron transport chain enzyme activities in heart homogenates; details: TAC hearts, Sirt3Ko and WT heart lysate
Description: Enzyme Activities. Citrate synthase (CS), Complex I (CI) and Cytochrome C Oxidase (CIV), and Mrpp2 dehydrogenase activities were determined in heart tissue homogenates at 30° C. using a protocol adapted from previously published methods (Spinazzi et al., 2012). Briefly, for CS activity frozen cardiac tissue (25 mg) was homogenized at 4° C. in CelLytic™ MT Cell Lysis Reagent (C3228) and then incubated on ice for 30 minutes. The samples were then centrifuged at 10,000×g for 10 minutes at 4° C. and protein concentration determined. CS activity was analyzed in 100 mM Tris buffer containing 0.1% Triton X-100, pH 8.0 as previously described (Spinazzi et al., 2012). For CIV activity, 25 mg of cardiac tissue was homogenized at 4° C. in 50 mM potassium phosphate buffer containing 1 mM EDTA, and 0.1% Triton X-100 (pH 7.4; final concentration, 5 mg tissue/mL). The samples were incubated on ice for 30 minutes followed by centrifugation at 10,000×g for 10 minutes at 4° C. CIV activity was analyzed in 100 mM potassium phosphate buffer as previously described (Spinazzi et al., 2012). For Cl activity, 25 mg of cardiac tissue was homogenized at 4° C. in 50 mM potassium phosphate buffer containing 1 mM EDTA, and 0.1% Triton X-100 (pH 7.4; final concentration, 5 mg tissue/mL). The samples were incubated on ice for 30 minutes followed by centrifugation at 10,000×g for 10 minutes at 4° C. Cl activity was analyzed in 100 mM potassium phosphate buffer as previously described (Spinazzi et al., 2012). In parallel, a separate reactions containing the same quantity of reagents and sample but with the addition of 10 μl of 1 mM rotenone solution. The reactions were started by adding 6 μl of ubiquinone (10 mM), mix and follow the decrease of absorbance at 340 nm for 2 min. The dehydrogenase activity of Mrpp2 was measured as described (Falk et al., 2016) in the reverse direction for reduction of acetoacetyl-CoA (30 mM) to L-3-hydroxyacyl-CoA. The reaction was monitored as the decrease of absorbance at 340 nm.

[2] = test system: isoproterenol (ISO) induced heart failure in WT and Sirt3Ko mice; experiment: Isoproterenol (ISO) minipump induced heart failure, echocardiography and HW/TL; details: 14 days of ISO, NR 500 mg/kg body weight IP daily
Description: Minipump implantation. Pathologic hypertrophy was induced by treating male (3-4 months old) Sirt3ko and WT mice with isoproterenol (ISO) or vehicle for 14 days. Mice with and without GW6471(4.5 mg/kg/day) were treated with NR (500 mg/kg body weight IP daily) or vehicle starting at day one after mini-pump insertion. Briefly, an incision was made in the skin between the shoulder blades. A deep subcutaneous pocket was made caudal to the incision using blunt dissection. The sterile minipump (Alzet #2002) was inserted into the pocket, and the incision was closed with wound clips. Isoproterenol (30 mg/kg/day) was delivered by osmotic minipump for 14 days. Minipumps carrying saline were used as a control.
Transthoracic Echocardiography. Echocardiography of hearts was performed at indicated time after surgery using the VEVO 2100 high-frequency, high-resolution digital imaging system (VisualSonics) equipped with a MS400 Microscan Transducer on anesthetized mice (0.5%-2% isoflurane in 95% oxygen). Measurements were made when heart rate was >450 bpm. Cardiac function and geometry measurements were measured in parasternal short axis view. M-mode images were used for analysis and calculated by the average of at least three cardiac cycles and carried out in a blind fashion. Hearts were harvested at 12-week post-surgery for subsequent experiments and biochemical assays.
Organ weight and histological assessment. Hearts from mice were harvested, rinsed briefly in 1×PBS, blotted dry, and weighed. Lungs from the same mice were harvested, weighed, then dried at 56 C. After 72 hours the lungs were weighed again. Heart weight (HW) and Lung weight (LW) was normalized to tibia length (TL) to assess changes in hypertrophic growth and lung edema, respectively. For histology, hearts were perfusion fixed with 10% neutral buffered formalin. Longitudinal sections of hearts were stained with Masson's Trichrome for assessment of fibrosis by the University of Washington Histology and Imaging Core.

[3] = test system: heart mRNA levels (Nppa, Ctgf, mtDNA encoded genes, PPARα/RXRα target genes); experiment: RT-PCR of heart transcripts and mitochondrial RNA junctions
Description: RNA Extraction and Quantitative Real-Time Polymerase Chain Reaction (RT-PCR). Total RNA was isolated from frozen heart tissue using the RNeasy fibrous Kit (Qiagen). Total RNA was reverse-transcribed into first-strand cDNA using Iscript (Bio-rad) according to manufacturer's guidelines. Real Time PCR was performed using SYBR green (Bio-Rad). Results of mRNA levels were normalized to 18S rRNA levels and reported as fold-change over control.

## NC(=O)c1ccc[n+]([C@@H]2O[C@H](CO)[C@@H](O)[C@H]2O)c1 [NR, Nicotinamide riboside chloride]
Mrpp2
  Increase in Mrpp2 dehydrogenase activity: ~2 fold
[1]
  Activity of citrate synthase: no change
  Activity of complex I: restored
  Activity of cytochrome c oxidase (COIV): restored
[2]
  Cardiac hypertrophy: partially reduced
  FS %: increased
[3]; Sirt3ko and WT TAC mice
  Atrial natriuretic peptide (Nppa) levels: decreased
  Connective growth factor (Ctgf) levels: decreased
[3]; TAC hearts, Sirt3Ko and WT
  Expression of mtDNA encoded genes (mt-Nd1, mt-Cox1 and mt-Cytb): improved
  Expression of nuclear DNA encoded ETC genes: not changed
[3]; failing (TAC) hearts
  Expression of PPARα target genes (Acadm, Ucp2, Ucp3, Octn2, Cpt1b): increased
[3]; failing hearts of WT and Sirt3Ko mice
  Accumulation of mitochondrial RNA precursor fragments (Nd1-Nd2, Cox1-Cox2 junctions): removed the accumulation of RNA precursor fragments
